The values that follow come from patent US20240067651A1 (Biohaven Therapeutics Ltd., priority 2019, published 2024).

A short description of one data set: Plasma Stability. To be noted: human plasma. The data set is classed as in vitro ADME, human. The method, boiled down:
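Parent compound quantified by LC-MS/MS after acetonitrile precipitation, reported as percent of control remaining (triplicate). Incubation: 1 hour, 37° C, fresh human plasma, compound at 1 μM.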

Data set [1] in a line: Stability in Simulated Intestinal Fluid (SIF). Type of data set: in vitro ADME. Also noted: key: % parent compound remaining relative to 0-minute sample. The essentials:
(§1)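 LC-MS/MS read-out of intact compound (2 μg/mL final) over 60 minutes at 37° C; gastric medium pH 1.2 with pepsin, intestinal medium pH 6.8 with pancreatin. Half-life from ln(% remaining) against time.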

Data set [2] in a line: Caco-2 Permeability Assay. The data set is classed as in vitro ADME, human. The following applies: human. The method, boiled down: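 Bidirectional transport at 37 °C for 90 min, 10 μM donor concentration, with or without Pgp inhibitor, across 21-day Caco-2 monolayers with TEER >600 […] in HEPES-buffered HBSS, pH 7.4. LC-MS/MS of donor and receiver samples gives Papp, B→A/A→B efflux ratio and mass recovery.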

The nature of data set [3]: Stability in Simulated Gastric Fluid (SGF). The data set is classed as in vitro ADME. Also noted: key: % parent compound remaining relative to 0-minute sample. The method, boiled down:
as §1

Where [4] appears, read: simulated intestinal fluid, at 1 h.
[5] abbreviates: Caco-2, pH 7.4, Caco-2 monolayer.
Setting [6] is: simulated gastric fluid, at 1 h.
[7] abbreviates: simulated intestinal fluid, after 1 h.
Setting [8] is: simulated gastric fluid, after 1 h.
Where [9] appears, read: simulated intestinal fluid, @ 1 h.

As to `COC(=O)n1ccc2c1c(=O)[nH]c(=S)n2CCOC(C)C` [Example 233], the “human Plasma stability” value in “Plasma Stability” (at 1 h) was found to be 2% remaining. For the same molecule, in data set [1] (setting [4]), the SIF was 70% remaining. In data set [2] (setting [5]), the Papp at 90 min, 10 µM was found to be 0.314 ×10⁻⁶ cm/s. Further, the SGF in data set [3] (setting [6]) is given as 98% remaining.

For the molecule `CC(C)OCCn1c(=S)[nH]c(=O)c2c1ccn2COC(=O)Oc1cccc(F)c1` [Example 234], the “human Plasma stability” value in “Plasma Stability” (at 1 h) came to 2% remaining. Moreover, the SIF in data set [1] (setting [4]) was 8% remaining. In addition, the Papp at 90 min, 10 µM in data set [2] (setting [5]) was less than 0.33 ×10⁻⁶ cm/s. Moreover, the SGF in data set [3] (setting [6]) is reported as 34% remaining.

For the molecule `CC(C)OCCn1c(=S)[nH]c(=O)c2c1ccn2COC(=O)Oc1ccc(F)cc1` [Example 235], the “human Plasma stability” value in “Plasma Stability” (at 1 h) is 2% remaining. For the same molecule, the SIF in data set [1] (setting [4]) is reported as 1% remaining at. The molecule further had a Papp at 90 min, 10 µM in data set [2] (setting [5]) of less than 0.369 ×10⁻⁶ cm/s. The SGF in data set [3] (setting [6]) is reported as 60% remaining.

In the case of `Cc1ccc(OC(=O)OCn2ccc3c2c(=O)[nH]c(=S)n3CCOC(C)C)cc1` [Example 236], the “human Plasma stability” value in the data set “Plasma Stability” (at 1 h) is on record as 1% remaining. For the same molecule, the SIF in data set [1] (setting [4]) is listed as 1% remaining at. Also, in data set [2] (setting [5]), the Papp at 90 min, 10 µM was found to be 0.59 ×10⁻⁶ cm/s. In data set [3] (setting [6]), the SGF is 53% remaining.

As for `Cc1cccc(OC(=O)OCn2ccc3c2c(=O)[nH]c(=S)n3CCOC(C)C)c1` [Example 237], in “Plasma Stability” (at 1 h), the “human Plasma stability” value worked out at 1% remaining. The SIF in data set [1] (setting [4]) is 2% remaining. In data set [2] (setting [5]), this molecule showed a Papp at 90 min, 10 µM of 0.723 ×10⁻⁶ cm/s. In data set [3] (setting [6]), the SGF is 74% remaining.

As to `CC(C)OCCn1c(=S)[nH]c(=O)c2c1ccn2COC(=O)Oc1ccccc1F` [Example 238], the “human Plasma stability” value in “Plasma Stability” (at 1 h) turned out to be 1% remaining. The SIF in data set [1] (setting [4]) is listed as 1% remaining. Further, the Papp at 90 min, 10 µM in data set [2] (setting [5]) is less than 0.339 ×10⁻⁶ cm/s. Besides, the SGF in data set [3] (setting [6]) is recorded as 13% remaining.

Regarding `CC(C)OCCn1c(SCOC(=O)N(C)c2ccccc2F)nc(=O)c2[nH]ccc21` [Example 239], the “human Plasma stability” value in “Plasma Stability” (at 1 h) was 85% remaining. Moreover, the SIF in data set [1] (setting [4]) is listed as 96% remaining. Besides, in data set [2] (setting [5]), the Papp at 90 min, 10 µM came to 11.7 ×10⁻⁶ cm/s. Moreover, the SGF in data set [3] (setting [6]) is 99% remaining.

For `CC(C)OCCn1c(SCOC(=O)N(C)c2ccccc2Cl)nc(=O)c2[nH]ccc21` [Example 240], the “human Plasma stability” value in “Plasma Stability” (at 1 h) is recorded as 83% remaining. The SIF in data set [1] (setting [4]) was 97% remaining. The molecule further displayed a Papp at 90 min, 10 µM in data set [2] (setting [5]) of 15.4 ×10⁻⁶ cm/s. Besides, the SGF in data set [3] (setting [6]) is 99% remaining.

Regarding `COc1ccc(N(C)C(=O)OCSc2nc(=O)c3[nH]ccc3n2CCOC(C)C)cc1` [Example 241], the “human Plasma stability” value in the data set “Plasma Stability” (at 1 h) is on record as 100% remaining. In data set [1] (setting [4]), the SIF is 97% remaining. Moreover, the Papp at 90 min, 10 µM in data set [2] (setting [5]) came out at 10.5 ×10⁻⁶ cm/s. The SGF in data set [3] (setting [6]) is recorded as 57% remaining.

As for `Cc1ccccc1N(C)C(=O)OCSc1nc(=O)c2[nH]ccc2n1CCOC(C)C` [Example 242], the “human Plasma stability” value in the data set “Plasma Stability” (at 1 h) came out at 81% remaining. The SIF in data set [1] (setting [4]) is 96% remaining. This molecule also came in with a Papp at 90 min, 10 µM in data set [2] (setting [5]) of 15.6 ×10⁻⁶ cm/s. Further, the SGF in data set [3] (setting [6]) is 52% remaining.

On to `Cc1ccccc1N(C)C(=O)OCSc1nc(=O)c2c(ccn2COC(=O)N(C)c2ccccc2C)n1CCOC(C)C` [Example 243], for which the “human Plasma stability” value in the data set “Plasma Stability” (at 1 h) turned out to be 99% remaining. The SIF in data set [1] (setting [4]) was 99% remaining. Besides, the Papp at 90 min, 10 µM in data set [2] (setting [5]) is 31.4 ×10⁻⁶ cm/s. Besides, the SGF in data set [3] (setting [6]) is 88% remaining.

Regarding `Cc1ccccc1N(C)C(=O)OCn1c(=O)c2c(ccn2COC(=O)N(C)c2ccccc2C)n(CCOC(C)C)c1=S` [Example 244], in “Plasma Stability” (at 1 h), the “human Plasma stability” value is recorded as 52% remaining. The SIF in data set [1] (setting [4]) was 99% remaining. Besides, the Papp at 90 min, 10 µM in data set [2] (setting [5]) stood at 7.47 ×10⁻⁶ cm/s. Besides, the SGF in data set [3] (setting [6]) is on record as 98% remaining.

In the case of `Cc1cccc(N(C)C(=O)OCSc2nc(=O)c3[nH]ccc3n2CCOC(C)C)c1` [Example 245], the “human Plasma stability” value in the data set “Plasma Stability” (at 1 h) stood at 63% remaining. The SIF in data set [1] (setting [4]) is 99% remaining. Besides, the Papp at 90 min, 10 µM in data set [2] (setting [5]) was 21.6 ×10⁻⁶ cm/s. Besides, the SGF in data set [3] (setting [6]) was 99% remaining.

As to `Cc1cccc(N(C)C(=O)OCSc2nc(=O)c3c(ccn3COC(=O)N(C)c3cccc(C)c3)n2CCOC(C)C)c1` [Example 246], the “human Plasma stability” value in “Plasma Stability” (at 1 h) is reported as 99% remaining. In data set [1] (setting [4]), the SIF is 99% remaining. Also, the Papp at 90 min, 10 µM in data set [2] (setting [5]) is 21.7 ×10⁻⁶ cm/s. The SGF in data set [3] (setting [6]) was 98% remaining.

As to `Cc1cccc(N(C)C(=O)OCn2c(=O)c3c(ccn3COC(=O)N(C)c3cccc(C)c3)n(CCOC(C)C)c2=S)c1` [Example 247], in “Plasma Stability” (at 1 h), the “human Plasma stability” value amounted to 31% remaining. Also, the SIF in data set [1] (setting [4]) is 81% remaining. The Papp at 90 min, 10 µM in data set [2] (setting [5]) was found to be 3.99 ×10⁻⁶ cm/s. Also, in data set [3] (setting [6]), the SGF is given as 64% remaining.

As for `Cc1ccc(N(C)C(=O)OCSc2nc(=O)c3[nH]ccc3n2CCOC(C)C)cc1` [Example 248], the “human Plasma stability” value in “Plasma Stability” (at 1 h) is reported as 96% remaining. Further, the SIF in data set [1] (setting [4]) is reported as 98% remaining. This molecule came in with a Papp at 90 min, 10 µM in data set [2] (setting [5]) of 23.5 ×10⁻⁶ cm/s. For the same molecule, in data set [3] (setting [6]), the SGF was 99% remaining.

Consider `CC(C)OCCn1c(SCOC(=O)N(C)c2ccccc2Cl)nc(=O)c2c1ccn2COC(=O)N(C)c1ccccc1Cl` [Example 249], for which, in “Plasma Stability” (at 1 h), the “human Plasma stability” value is given as 98% remaining. Besides, the SIF in data set [1] (setting [4]) is recorded as 95% remaining. Further, in data set [2] (setting [5]), the Papp at 90 min, 10 µM was found to be 28.4 ×10⁻⁶ cm/s. In addition, in data set [3] (setting [6]), the SGF is on record as 89% remaining.

As for `CC(C)OCCn1c(=S)[nH]c(=O)c2c1ccn2COC(=O)CCCCCCCCCCCCCCC(=O)O` [Example 255, 16-oxo-16-({4-oxo-1-[2-(propan-2-yloxy)ethyl]-2-sulfanylidene-1H,2H,3H,4H,5H-pyrrolo[3,2-d]pyrimidin-5-yl}methoxy)hexadecanoic acid], the “human Plasma stability” value in “Plasma Stability” (% remaining at 1 h, 1 μM, 37° C.) was found to be 76%. Moreover, in data set [1] (% remaining at 1 h, SIF with pancreatin pH 6.8, 2 μg/mL, 37° C.), the SIF was 2%. The molecule further yielded a Papp at 90 min, 10 µM in data set [2] (Caco-2, pH 7.4, donor 10 μM, 90 minutes, 37° C., direction not given) of 2.72 ×10⁻⁶ cm/s. For the same molecule, the SGF in data set [3] (% remaining at 1 h, SGF with pepsin pH 1.2, 2 μg/mL, 37° C.) is 95%.

Turning to `CC(C)OCCn1c(=S)[nH]c(=O)c2c1ccn2COC(=O)CCCCCCCCCCCCCCC(=O)OC(C)C` [Example 256], the “human Plasma stability” value in “Plasma Stability” (after 1 h) turned out to be 88% remaining. For the same molecule, the SIF in data set [1] (setting [7]) was 9% remaining. This molecule also showed a Papp at 90 min, 10 µM in data set [2] (setting [5]) of 0.25 ×10⁻⁶ cm/s. Moreover, the SGF in data set [3] (setting [8]) is 99% remaining.

With `CC(C)OCCn1c(=S)[nH]c(=O)c2c1ccn2COC(=O)CCCCCCCCCCC(=O)O` [Example 261], the “human Plasma stability” value in the data set “Plasma Stability” (after 1 h) came to 94% remaining. Besides, the SIF in data set [1] (setting [7]) is 2% remaining. In data set [2] (setting [5]), this molecule had a Papp at 90 min, 10 µM of 11.7 ×10⁻⁶ cm/s. The SGF in data set [3] (setting [8]) is on record as 99% remaining.

Take `CC(C)OCCn1c(=S)[nH]c(=O)c2c1ccn2COC(=O)CCCCCCCCCCC(=O)OC(C)C` [Example 262]: the “human Plasma stability” value in “Plasma Stability” (after 1 h) amounted to 41% remaining. Further, the SIF in data set [1] (setting [7]) is recorded as 2% remaining. Also, the Papp at 90 min, 10 µM in data set [2] (setting [5]) is less than 0.214 ×10⁻⁶ cm/s. The SGF in data set [3] (setting [8]) is 92% remaining.

With `CC(C)OCCn1c(=S)n(COC(=O)CNC(=O)OC(C)(C)C)c(=O)c2c1ccn2COC(=O)CNC(=O)OC(C)(C)C` [Example 283], the “human Plasma stability” value in “Plasma Stability” (@ 1 h) stood at 26% @ 1 h. For the same molecule, in data set [1] (setting [9]), the SIF was 1% @ 1 h. Besides, the Papp at 90 min, 10 µM in data set [2] (setting [5]) stood at 5.78 ×10⁻⁶ cm/s. Moreover, the SGF in data set [3] (simulated gastric fluid, @ 1 h) is given as 82% @ 1 h.

As to `CC(C)OCCn1c(=S)[nH]c(=O)c2c1ccn2COC(=O)CN` [Example 284], the “human Plasma stability” value in “Plasma Stability” (@ 1 h) worked out at 0% @ 1 h. Further, the SIF in data set [1] (setting [9]) is listed as 6% @ 1 h. In data set [2] (setting [5]), this molecule yielded a Papp at 90 min, 10 µM of 1.55 ×10⁻⁶ cm/s. Moreover, the SGF in data set [3] (simulated gastric fluid, @ 1 h) is listed as 100% @ 1 h.

Broadly, the Papp is a coefficient for how fast a substance crosses the barrier.
